Laboratory results taken from patent US7842488B2, “Polynucleotides encoding a human 3-phosphoinositide- dependent protein kinase” (Medical Research Council, priority 1997, dated 2010).

How the values were obtained:
GST-ΔPH-PDK1 = biological target: T1, GST-ΔPH-PDK1 (Homo sapiens, UniProt O15530); assay: GST-ΔPH-PDK1 assay: activation of GST-PKBα; format: biochemical; conditions: lipid 10 μM in PtdCho/PtdSer vesicles
T1 construct: expressed as a GST-fusion protein in 293 cells (GST-ΔPH-PDK1, residues 1-450); made in house; host or cells: human embryonic kidney 293 cells (pEBG-2T)
Method: FIG. 15. Role of the PH domains of PKBα and PDK1. […] The assays were terminated by making the incubations 1% (by vol) in Triton X-100 as in Example 1, and the increase in specific activity of GST-PKBα was determined. The basal activity of GST-PKBα was 2.5 U/mg and that of GST-ΔPH-PKBα was 8 U/mg. At the high concentration of GST-PDK1 used in this assay the rate of activation of full length wild type GST-PKBα is not linear with time whereas the activation of GST-ΔPH-PKBα is linear. When the experiments are carried out at 20-fold lower concentrations of GST-PDK1 a similar extent of activation of wild-type GST-PKBα is achieved as that shown in the figure for GST-ΔPH-PKBα by 2.3 nM GST-PDK1. (B) as in (A) except that 0.5 μg of GST-PKBα was incubated with 2.5 nM […] in the presence of phospholipid vesicles containing 100 μM PtdCho, 100 μM PtdSer and 10 μM of either, sn-1-stearoyl-2-arachidonyl-D-PtdIns(3,4,5)P3 (Track 1); sn-1-stearoyl-2-arachidonyl-L-PtdIns(3,4,5)P3 (Track 2), sn-1,2 di-palmitoyl-D-PtdIns(3,4,5)P3 (Track 3), sn-1,2 di-palmitoyl-D-PtdIns(3,4,5)P3 (Track 4), PtdIns(4,5)P2 (purified from Folch brain fraction Track 5) and sn-1,2 di-palmitoyl-D-PtdIns-3P (Track 6). The results are presented as the increase in the specific activity of GST-PKBα (U/mg), (±SEM for 6-9 determinations, three independent experiments), relative to a control incubation in which GST-PDK1 is omitted.
Assay of GST-PDK1 and GST-DSTPK61 activity. GST-PDK1 and GST-DSTPK61 were diluted appropriately in Buffer B containing 1 mg/ml bovine serum albumin, and assayed for their ability to activate and phosphorylate GST-PKBα [21]. One unit of PDK1 activity was defined as that amount required to increase the basal activity of GST-PKBα by 1 unit of activity in one min. One unit of GST-PKBα activity was that amount of enzyme required to catalyse the phosphorylation of 1 nmol of the peptide RPRAATF (SEQ ID NO: 9) in 1 min in an assay containing 0.1 mM RPRAATF (SEQ ID NO: 9)). […]

PDK1 [1] = assay: PDK1 assay: activation of GST-PKBα by purified PDK1 with phospholipid vesicles; format: biochemical, rabbit; conditions: for activation of PDK1 (in words) / fold-activation of GST-PKBα (PDK1 activity): lipid 10 μM in vesicles of 100 μM PtdCho, 100 μM PtdSer, 30 min at 30° C.; for order of level of activation of the 3-phosphoinositide-dependent kinase (most effective first): rabbit skeletal muscle PDK1, FIG. 6
Method: (§1) Assay of PDK1. The assay was carried out in two stages; in the first, GST-PKBα was incubated with PDK1 in the presence of MgATP and phospholipid vesicles to permit activation of GST-PKBα.
(§2) After 10 min at 30° C., the reactions were terminated by spotting the reaction mixture on to p81 phosphocellulose paper. The papers were washed in phosphoric acid and analysed as described previously. […] The basal GST-PKBα activity is the activity measured in the absence of PDK1.

GST-PDK1 = biological target: T2, GST-PDK1 (Homo sapiens, UniProt O15530); assay: GST-PDK1 assay: activation and phosphorylation of GST-PKBα; format: biochemical; conditions: for activation and phosphorylation of GST-PKBα by GST-PDK1 (in words): lipid 10 μM in PtdCho/PtdSer vesicles
T2 construct: Residues 52-556 of PDK1 were expressed in human embryonic kidney 293 cells; made in house; host or cells: human embryonic kidney 293 cells (pEBG2T)
T2 sequence (O15530 52-556): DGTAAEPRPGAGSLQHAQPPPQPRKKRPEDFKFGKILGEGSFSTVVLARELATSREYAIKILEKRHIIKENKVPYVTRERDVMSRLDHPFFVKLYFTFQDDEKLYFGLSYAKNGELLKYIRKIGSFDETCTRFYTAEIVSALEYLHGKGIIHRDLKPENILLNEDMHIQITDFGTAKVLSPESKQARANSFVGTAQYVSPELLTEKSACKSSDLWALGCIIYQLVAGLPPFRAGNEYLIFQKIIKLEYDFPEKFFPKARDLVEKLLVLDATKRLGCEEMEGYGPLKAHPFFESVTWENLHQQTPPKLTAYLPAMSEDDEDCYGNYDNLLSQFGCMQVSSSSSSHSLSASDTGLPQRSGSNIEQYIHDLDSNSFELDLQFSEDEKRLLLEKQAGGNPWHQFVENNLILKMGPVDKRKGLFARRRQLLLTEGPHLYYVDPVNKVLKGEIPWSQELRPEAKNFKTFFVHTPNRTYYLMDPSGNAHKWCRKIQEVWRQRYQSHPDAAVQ
Method: (§3) FIG. 12. […] In panels A and C, the assays were terminated by making the incubations 1% (by vol) in TRITON X-100™ (see Ref 21), and the increase in specific activity of GST-PKBα was determined. In panels B and D, the reactions were terminated by making the solutions 1% in SDS, the samples were subjected to SDS/polyacrylamide gel electrophoresis, and the phosphorylation was assessed by autoradiography of the Coomassie blue-stained band corresponding to GST-PKBα.
(§4) One unit of PDK1 activity was defined as that amount required to increase the basal activity of GST-PKBα by 1 unit of activity in one min.

GST-DSTPK61 = biological target: T3, GST-DSTPK61 (Drosophila melanogaster, UniProt Q9W0V1); assay: GST-DSTPK61 assay: activation and phosphorylation of GST-PKBα; format: biochemical; conditions: lipid 10 μM in PtdCho/PtdSer vesicles
T3 construct: residues 1-752 of DSTPK61 in E. coli as fusion proteins; made in house; host or cells: E. coli (pGEX-3X)
Method: as §3, §4

GST-PKBα [2] = biological target: T4, GST-PKBα (Homo sapiens, UniProt P31749); assay: GST-PKBα activity and phosphorylation with lipids in the absence of PDK1; format: biochemical; conditions: same conditions as PDK1 activation
T4 construct: generate a full length cDNA encoding the PKBα gene; made in house; host or cells: human embryonic kidney 293 cells (pEBG2T), serum starved
Method: as §1, §2

PKB = PKB (Homo sapiens, UniProt P31749); conditions: cited from earlier work
PDK1 [3] = assay: Phosphorylation of GST-PKBα by PDK1 with [γ32P]ATP; format: biochemical, rabbit; conditions: lipid 10 μM in PtdCho/PtdSer vesicles
Method: Solutions were stored at 4° C. at concentrations 10-fold higher than those required in the assay and used within 2-4 days.
Phosphorylation of GST-PKB ? by PDK1. The incubations were identical to the Stage 1 described above except that [γ^32P] ATP (200-400 cpm/pmol) was used instead of unlabelled ATP. The reactions were terminated by making the solution 1% (by mass) in SDS. […] The Coomassie blue-staining bands corresponding to GST-PKBα were excised and the ^32P-radioactivity associated with each band was quantified.

GST-PKBα [4] = assay: Activation of GST-PKBα after stimulation of transfected 293 cells; format: cell-based, human; conditions: versus unstimulated 293 cells
From the text: Expression of GST-PKBα in 293 cells. The DNA sequence encoding PKBα was subcloned into the eukaryotic expression vector PEBG2T that has been used to overexpress GST-fusion proteins in eukaryotic cells under an EF1α promoter. A PCR reaction was set up to generate a full length cDNA encoding the PKBα gene with a BamH1site at the 5′ end of the cDNA that is in frame with the GST sequence of the PEBG2T vector and the ATG initiation codon of PKBα, and a KpnI site at the 3′ end, using the human PCMV5-HA-PKBα plasmid. The DNA sequence of the BamH1/KpnI cDNA fragment was checked and then subcloned into the unique BamH1/KpnI restriction sites on the pEBG 2T expression vector. In order to prepare GST-PKBα, 40, 10 cm diameter dishes of human embryonic kidney 293 cells were cultured and each dish transfected with 20 μg of GST PKBα expression construct using the modified calcium phosphate method described previously for overexpression of haemaglutinin tagged PKBα in 293 cells. […]

T1 sequence (P31749 whole entry partner, the tested form may be a part): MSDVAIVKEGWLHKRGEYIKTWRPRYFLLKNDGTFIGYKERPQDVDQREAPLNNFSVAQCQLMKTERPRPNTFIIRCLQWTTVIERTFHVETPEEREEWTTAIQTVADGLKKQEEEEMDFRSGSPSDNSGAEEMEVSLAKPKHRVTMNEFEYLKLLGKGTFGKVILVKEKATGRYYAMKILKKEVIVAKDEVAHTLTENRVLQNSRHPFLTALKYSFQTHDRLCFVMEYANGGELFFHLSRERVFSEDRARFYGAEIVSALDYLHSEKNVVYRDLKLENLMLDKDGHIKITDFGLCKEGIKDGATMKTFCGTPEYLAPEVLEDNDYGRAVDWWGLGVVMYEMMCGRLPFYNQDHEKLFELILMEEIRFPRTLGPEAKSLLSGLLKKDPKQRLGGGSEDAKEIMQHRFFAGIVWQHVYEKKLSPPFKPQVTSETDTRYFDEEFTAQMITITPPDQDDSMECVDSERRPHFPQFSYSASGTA
T1 sequence (O15530 1-450, stated change not applied): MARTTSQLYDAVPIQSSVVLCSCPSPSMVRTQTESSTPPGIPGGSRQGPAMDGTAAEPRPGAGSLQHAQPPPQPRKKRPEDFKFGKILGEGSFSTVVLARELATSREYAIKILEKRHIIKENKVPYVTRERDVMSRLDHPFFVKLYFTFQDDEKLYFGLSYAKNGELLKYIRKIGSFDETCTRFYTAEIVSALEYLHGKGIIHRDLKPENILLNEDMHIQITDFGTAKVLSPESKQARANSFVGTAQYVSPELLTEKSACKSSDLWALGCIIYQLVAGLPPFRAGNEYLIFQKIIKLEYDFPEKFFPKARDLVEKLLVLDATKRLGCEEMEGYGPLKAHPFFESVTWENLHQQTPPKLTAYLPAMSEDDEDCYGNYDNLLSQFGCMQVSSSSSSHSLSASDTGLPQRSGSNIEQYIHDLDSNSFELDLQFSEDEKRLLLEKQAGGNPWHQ
Chain of PKB (P31749 whole entry, species assumed): as the sequence (P31749 whole entry partner, the tested form may be a part) above
T3 sequence (Q9W0V1 85-836 Q200H/Q201E/Q317A/G443R): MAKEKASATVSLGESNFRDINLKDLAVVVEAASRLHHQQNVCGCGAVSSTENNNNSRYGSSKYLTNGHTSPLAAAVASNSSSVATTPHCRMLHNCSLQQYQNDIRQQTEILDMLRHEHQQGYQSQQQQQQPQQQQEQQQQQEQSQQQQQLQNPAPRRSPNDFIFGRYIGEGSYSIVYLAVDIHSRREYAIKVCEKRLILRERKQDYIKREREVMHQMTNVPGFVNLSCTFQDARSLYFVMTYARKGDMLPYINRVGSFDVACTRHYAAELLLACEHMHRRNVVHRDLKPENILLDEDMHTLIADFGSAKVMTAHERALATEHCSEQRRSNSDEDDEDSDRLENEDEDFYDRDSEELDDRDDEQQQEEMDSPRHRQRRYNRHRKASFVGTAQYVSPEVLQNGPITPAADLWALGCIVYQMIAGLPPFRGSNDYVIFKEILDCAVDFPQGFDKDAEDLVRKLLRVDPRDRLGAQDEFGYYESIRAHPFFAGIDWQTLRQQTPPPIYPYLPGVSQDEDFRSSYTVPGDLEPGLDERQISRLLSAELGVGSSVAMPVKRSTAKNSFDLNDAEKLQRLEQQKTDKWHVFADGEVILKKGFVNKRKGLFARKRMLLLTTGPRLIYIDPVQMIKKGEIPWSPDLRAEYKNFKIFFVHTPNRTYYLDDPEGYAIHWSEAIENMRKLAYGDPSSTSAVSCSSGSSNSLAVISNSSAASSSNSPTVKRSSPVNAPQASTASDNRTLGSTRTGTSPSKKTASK
T4 sequence (P31749 whole entry): as the sequence (P31749 whole entry partner, the tested form may be a part) above

activation of GST-PKBα by GST-ΔPH-PDK1 (in words) (GST-ΔPH-PDK1) | order of level of activation of the 3-phosphoinositide-dependent kinase (most effective first) (PDK1 [1]) | Compound | activation of PDK1 (in words) (PDK1 [1]) | fold-activation of GST-PKBα (PDK1 activity) (PDK1 [1]) | activation and phosphorylation of GST-PKBα by GST-PDK1 (in words) (GST-PDK1) | activation and phosphorylation of GST-PKBα by GST-DSTPK61 (in words) (GST-DSTPK61) | other results
no activation | 2 | CCCCC/C=C\C/C=C\C/C=C\C/C=C\CCCC(=O)OC(COC(=O)CCCCCCCCCCCCCCCCC)COP(=O)(O)OC1C(O)C(OP(=O)(O)O)C(OP(=O)(O)O)C(OP(=O)(O)O)C1O (single isomer, unassigned) [Lipid 2, L-enantiomer of sn-1-stearoyl-2-arachidonyl PtdIns(3,4,5)P3] | no significant activation | – | – | – | fold-activation of GST-PKBα (PDK1 activity) (PDK1 [1]; 2-arachidonyl PtdIns(3,4,5)P3): 1.7 fold; activation of PDK1 (in words) (PDK1 [1]; listed as L-enantiomer of sn-1-stearoyl-2-arachidonyl PtdIns(3,4,5)P3): almost ineffective
activated more effectively | – | CCCCC/C=C\C/C=C\C/C=C\C/C=C\CCCC(=O)O[C@H](COC(=O)CCCCCCCCCCCCCCCCC)COP(=O)(O)O[C@H]1[C@H](O)[C@@H](OP(=O)(O)O)[C@H](OP(=O)(O)O)[C@@H](OP(=O)(O)O)[C@H]1O [Lipid 1, sn-1-stearoyl, 2-arachidonyl D-phosphatidylinositol 3,4,5-trisphosphate] | potently activated PDK1 | 13 fold | – | – | –
very poor | 4 | CCCCCCCCCCCCCCCC(=O)OCC(COP(=O)(O)OC1C(O)C(O)C(OP(=O)(O)O)C(OP(=O)(O)O)C1O)OC(=O)CCCCCCCCCCCCCCC (stereo not shown) [Lipid 7, sn-1,2 di-palmitoyl PtdIns(3,4)P2] | as effective as sn-1,2-dipalmitoyl D-PtdIns(3,4,5)P3 | about 6 fold | as effective as sn-1,2-dipalmitoyl D-PtdIns(3,4,5)P3 | – | fold less effective in activating PDK1 than the sn-1-stearoyl-2-arachidonyl and sn-2-arachidonyl-3-stearoyl derivatives (PDK1 [1]): ~3 fold

More lines, now with the values behind:

Compound | activation of GST-PKBα by GST-ΔPH-PDK1 (in words) (GST-ΔPH-PDK1) | order of level of activation of the 3-phosphoinositide-dependent kinase (most effective first) (PDK1 [1]) | activation of PDK1 (in words) (PDK1 [1]) | fold-activation of GST-PKBα (PDK1 activity) (PDK1 [1]) | activation and phosphorylation of GST-PKBα by GST-PDK1 (in words) (GST-PDK1) | activation and phosphorylation of GST-PKBα by GST-DSTPK61 (in words) (GST-DSTPK61) | other results
Phosphatidylinositol 3,4-bisphosphate [PtdIns(3,4)P2] | – | – | only active in the presence of low micromolar concentrations | – | activated and phosphorylated GST-PKBα | activated and phosphorylated GST-PKBα | activation, inhibition or phosphorylation of GST-PKBα in the absence of PDK1 (GST-PKBα [2]): no effect; fold enhancement of PDK1 activity in the presence of the inositol phospholipid (GST-PDK1; versus absence of PtdIns(3,4,5)P3 or PtdIns(3,4)P2): about 1000 fold; affinity of binding to PKB (in words) (PKB; via the N-terminal PH domain): micromolar affinity
PtdIns(4,5)P2 [Lipid 9] | – | – | no significant activation | – | no activation or phosphorylation | no activation or phosphorylation | activation of PDK1 (in words) (PDK1 [1]; listed as PtdIns(4,5)P2): did not activate PDK1 at all; activation of PDK1 (in words) (PDK1 [1]; listed as lipid 9): did not activate PDK1; fold lower affinity of PKB than for PtdIns(3,4,5)P3 or PtdIns(3,4)P2 (PKB): 10 fold; phosphorylation of GST-PKBα by PDK1 (in words) (PDK1 [3]): did not activate PDK1 or induce the phosphorylation
insulin: insulin used to stimulate 293 cells | – | – | – | – | – | – | fold activation of GST-PKBα after stimulation of 293 cells (GST-PKBα [4]): 20 fold
